Reference: ChEMBL document CHEMBL5346915, “A practical "preTACs-cytoblot" platform accelerates the streamlined development of PROTAC-based protein degraders” (Eur J Med Chem, 2023)
Active and inactive are the calls of the source. The calls are words filed in the database; no cut-off is given here.

Key:
[1] = target: Protein cereblon/Cyclin-dependent kinase 12 (Homo sapiens) (UniProt Q9NYV4+Q96SW2); assay: PROTAC activity at CRBN/CDK12 in human HeLa cells assessed as induction of CDK12 degradation measured after 24 hrs by fluorescence based cytoblot assay; type: cell-based
[2] = target: T1, von Hippel-Lindau disease tumor suppressor/Cyclin-dependent kinase 12 (Homo sapiens, UniProt P40337+Q9NYV4); assay: PROTAC activity at VHL/CDK12 in human HeLa cells assessed as induction of CDK12 degradation measured after 24 hrs by Western blotting analysis; type: cell-based
[3] = target: T1, von Hippel-Lindau disease tumor suppressor/Cyclin-dependent kinase 12; assay: PROTAC activity at VHL/CDK12 in human HeLa cells assessed as induction of CDK12 degradation measured after 24 hrs by fluorescence based cytoblot assay; type: cell-based
[4] = test system: MDA-MB-231; assay: Antiproliferative activity against human MDA-MB-231 cells assessed as inhibition of cell growth measured after 96 hrs by SRB assay; type: functional, cell-based; conditions: MDA-MB-231, 96 h
[5] = test system: HeLa; assay: Antiproliferative activity against human HeLa cells assessed as inhibition of cell growth measured after 96 hrs by SRB assay; type: functional, cell-based
[6] = test system: HCT-116; assay: Antiproliferative activity against human HCT-116 cells assessed as inhibition of cell growth measured after 96 hrs by SRB assay; type: functional, cell-based; conditions: HCT-116, 96 h
[7] = Cytotoxicity against human L02 cells assessed as inhibition of cell growth measured after 96 hrs by SRB assay; type: toxicity, cell-based
[8] = test system: Bel-7402; assay: Antiproliferative activity against human Bel-7402 cells assessed as inhibition of cell growth measured after 96 hrs by SRB assay; type: functional, cell-based; conditions: Bel-7402, 96 h
[9] = test system: MDA-MB-231; assay: Synergistic antiproliferative activity against human MDA-MB-231 cells assessed as combination index at 500 nM incubated for 14 days in presence of olaparib by sulforhodamine B staining based Chou-Talalay method; type: functional; conditions: time 14 day

T1 sequence (P40337 whole entry): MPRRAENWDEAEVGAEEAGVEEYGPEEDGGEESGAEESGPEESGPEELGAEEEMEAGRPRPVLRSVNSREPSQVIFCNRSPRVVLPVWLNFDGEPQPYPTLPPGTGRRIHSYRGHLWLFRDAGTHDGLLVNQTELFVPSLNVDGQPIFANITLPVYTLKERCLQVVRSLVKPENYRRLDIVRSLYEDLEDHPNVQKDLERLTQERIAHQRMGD
T1 sequence (Q9NYV4 whole entry): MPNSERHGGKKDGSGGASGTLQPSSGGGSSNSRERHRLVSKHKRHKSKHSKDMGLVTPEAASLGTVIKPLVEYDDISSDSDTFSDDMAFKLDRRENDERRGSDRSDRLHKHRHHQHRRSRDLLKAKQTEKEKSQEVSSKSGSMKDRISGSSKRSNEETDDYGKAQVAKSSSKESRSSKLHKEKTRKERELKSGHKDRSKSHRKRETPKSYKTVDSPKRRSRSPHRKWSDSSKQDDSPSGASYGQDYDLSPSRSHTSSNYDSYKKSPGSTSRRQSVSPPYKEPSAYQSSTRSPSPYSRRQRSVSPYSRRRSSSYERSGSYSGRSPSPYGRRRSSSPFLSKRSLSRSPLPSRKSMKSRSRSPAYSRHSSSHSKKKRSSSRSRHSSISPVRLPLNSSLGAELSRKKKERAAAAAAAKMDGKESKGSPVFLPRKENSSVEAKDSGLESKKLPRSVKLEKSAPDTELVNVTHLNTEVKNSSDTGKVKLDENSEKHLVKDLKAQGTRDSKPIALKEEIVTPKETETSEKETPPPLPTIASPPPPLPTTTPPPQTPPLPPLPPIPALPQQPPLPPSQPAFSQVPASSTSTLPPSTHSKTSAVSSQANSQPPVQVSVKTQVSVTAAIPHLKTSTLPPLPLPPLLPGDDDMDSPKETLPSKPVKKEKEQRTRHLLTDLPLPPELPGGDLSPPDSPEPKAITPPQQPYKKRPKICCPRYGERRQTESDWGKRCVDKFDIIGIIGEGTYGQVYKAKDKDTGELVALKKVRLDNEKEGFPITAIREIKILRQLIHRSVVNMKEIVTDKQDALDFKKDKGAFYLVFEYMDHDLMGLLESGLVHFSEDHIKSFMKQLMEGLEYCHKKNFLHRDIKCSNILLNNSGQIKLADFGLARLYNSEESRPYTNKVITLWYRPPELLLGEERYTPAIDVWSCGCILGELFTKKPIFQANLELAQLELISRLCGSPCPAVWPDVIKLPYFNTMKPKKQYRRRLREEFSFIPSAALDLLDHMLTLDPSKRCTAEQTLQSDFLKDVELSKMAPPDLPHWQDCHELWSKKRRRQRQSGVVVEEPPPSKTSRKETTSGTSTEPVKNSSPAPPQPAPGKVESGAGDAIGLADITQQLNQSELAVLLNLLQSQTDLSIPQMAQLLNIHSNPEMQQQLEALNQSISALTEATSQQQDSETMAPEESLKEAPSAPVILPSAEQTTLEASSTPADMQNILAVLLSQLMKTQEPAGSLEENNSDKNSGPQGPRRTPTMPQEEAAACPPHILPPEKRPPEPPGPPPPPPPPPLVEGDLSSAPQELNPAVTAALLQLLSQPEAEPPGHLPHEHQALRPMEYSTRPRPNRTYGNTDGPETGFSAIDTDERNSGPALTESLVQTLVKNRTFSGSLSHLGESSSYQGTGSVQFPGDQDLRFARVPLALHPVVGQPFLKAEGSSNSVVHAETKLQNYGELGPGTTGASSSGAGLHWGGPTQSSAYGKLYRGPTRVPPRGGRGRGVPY
Protein cereblon/Cyclin-dependent kinase 12 (Homo sapiens), sequence (Q96SW2 whole entry, looked up): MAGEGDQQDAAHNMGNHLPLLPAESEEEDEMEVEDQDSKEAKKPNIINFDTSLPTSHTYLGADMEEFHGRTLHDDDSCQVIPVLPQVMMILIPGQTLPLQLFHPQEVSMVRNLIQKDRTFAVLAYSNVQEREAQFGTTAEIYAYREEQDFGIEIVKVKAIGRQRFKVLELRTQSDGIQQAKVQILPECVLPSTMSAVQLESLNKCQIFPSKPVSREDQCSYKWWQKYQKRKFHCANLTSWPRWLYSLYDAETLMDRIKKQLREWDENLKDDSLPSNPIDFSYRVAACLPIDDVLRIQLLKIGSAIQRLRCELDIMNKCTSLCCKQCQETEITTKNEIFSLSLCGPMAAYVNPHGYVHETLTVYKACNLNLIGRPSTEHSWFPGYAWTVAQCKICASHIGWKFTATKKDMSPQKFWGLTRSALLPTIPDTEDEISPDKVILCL
Protein cereblon/Cyclin-dependent kinase 12 (Homo sapiens), sequence (Q9NYV4 whole entry, looked up): as the sequence (Q9NYV4 whole entry) above

Row | Compound | Activity [1] | DC50 [2] | DC50 [3] | IC50 [4] | IC50 [5] | IC50 [6] | IC50 at 96 h [7] | IC50 [8] | CI [9]
1 | CC(C)S(=O)(=O)c1ccccc1Nc1nc(N[C@@H]2CCCN(CCCCc3cn(CCCCCCCOc4ccc5c(c4)C(=O)N(C4CCC(=O)NC4=O)C5=O)nn3)C2)ncc1Cl (some centres not stated) | Active |  |  |  |  |  |  |  | 
2 | CC(C)S(=O)(=O)c1ccccc1Nc1nc(N[C@@H]2CCCN(CCCCCCCNC(=O)COc3cccc4c3C(=O)N(C3CCC(=O)NC3=O)C4=O)C2)ncc1Cl (some centres not stated) |  | 83 nM | 57 nM |  |  |  |  |  | 
3 | CN(C)C/C=C/C(=O)Nc1ccc(C(=O)N2CCC[C@@H](Nc3ncc(Cl)c(-c4c[nH]c5ccccc45)n3)C2)cc1 |  |  |  | 133 nM | 106 nM | 89 nM | 119 nM | 650 nM | 
4 | CC(C)S(=O)(=O)c1ccccc1Nc1nc(N[C@@H]2CCCN(CCCCc3cn(CCCCCCCOc4cccc5c4C(=O)N(C4CCC(=O)NC4=O)C5=O)nn3)C2)ncc1Cl (some centres not stated) | Active |  |  |  |  |  |  |  | 
5 | Cc1ncsc1-c1ccc([C@H](C)NC(=O)[C@@H]2C[C@@H](O)CN2C(=O)[C@@H](NC(=O)CCCCCCNC(=O)CN2CCC[C@@H](Nc3ncc(Cl)c(Nc4ccccc4S(=O)(=O)C(C)C)n3)C2)C(C)(C)C)cc1 |  | 85 nM | 74 nM | 468 nM | 316 nM | 665 nM | > 1000 nM | 491 nM | 0.17
